Measurements taken from patent publication US4208414A, “Vinblastine in rheumatoid arthritis” (Eli Lilly and Company, priority 1979, dated 1980).
Structures can show the parent of a compound that is named as a salt.

Experiments:
[1] = adjuvant-induced arthritis assay in rats; format: in vivo, female Wistar-Lewis rats; details: for Percent Inhibition Swelling, Injected Paw / Percent Inhibition Swelling, Uninjected Paw: day 16; for Percent Inhibition of Swelling, Injected Paw / Percent Inhibition of Swelling, Uninjected Paw: Table 2; for inhibiting induced arthritis, drug alone: at the dose levels used in combination; for Inhibition of Swelling, Mean Difference, Injected Paw / Inhibition of Swelling, Mean Difference, Uninjected Paw: Table 3
[2] = weight loss / deaths as a measure of toxicity in the adjuvant arthritis experiments
Experimental: Similar experiments were carried out with vinblastine-fenoprofen combinations and a vinblastine-indomethacin combination, again using adjuvant arthritis as a model. In this first determination, vinblastine was, as before, given on the 10th day, but fenoprofen, as the calcium salt, was given both from day 0 through day 15 and from day 10 through day 15. Controls utilizing each drug alone were employed as well as a saline control. […] In the vinblastine-indomethacin experiment, vinblastine was given on day 11 and indomethacin daily from days 11 to day 16.

[3] = pigeons or chickens, intertarsal joint; cited from earlier work
[4] = mice; cited from earlier work
[5] = antiarthritic activity relative to vinblastine, parenteral; format: in vivo; details: parenteral administration
[6] = intravenous; pleural cavity; cited from earlier work
[7] = dogs pretreated with vinblastine; cited from earlier work
twine granuloma assay = format: in vivo; details: female rats
Description: Vinblastine is also active in other assays designed to detect anti-arthritic activity as, for example, the twine granuloma assay in female rats.

[8] = Table 1 Section B, fenoprofen 5 mg/kg, days 10-15
[9] = Table 1 Section A, 3 mg/kg, given on 10th day
[10] = Table 1 Section A, 6 mg/kg, given on 10th day
[11] = Table 1 Section A, 9 mg/kg, given on 10th day
[12] = Table 1 Section A, 9 mg/kg, given on 10th day, * decrease from previous value
[13] = Table 1 Section A, 12 mg/kg, given on 10th day, * decrease from previous value
[14] = Table 1 Section B, vinblastine sulfate 6 mg/kg, 10th day
[15] = vinblastine sulfate 3 mg/kg, day 10, p = 1
[16] = Table 2, vinblastine sulfate 3 mg/kg day 10

CC(C(=O)O)c1cccc(Oc2ccccc2)c1 (racemic) [Fenoprofen (Ca salt), dl-α-methyl-3-phenoxybenzeneacetic acid]
Average Increase in Swelling, Injected Paw, Day 0-10 [1, 8]: 0.502 | Average Increase in Swelling, Injected Paw, Day 10-16 [1, 8]: 0.692 | Average Increase in Swelling, Uninjected Paw, Day 0-10 [1, 8]: 0.188 | Average Increase in Swelling, Uninjected Paw, Day 10-16 [1, 8]: 0.274 | Percent Inhibition Swelling, Injected Paw ([1]; Table 1 Section B, fenoprofen 5 mg/kg, days 10-15, p = 0.074): 41.11% | Percent Inhibition Swelling, Uninjected Paw ([1]; Table 1 Section B, fenoprofen 5 mg/kg, days 10-15, p = 0.282): 51.93% | Percent Inhibition of Swelling, Injected Paw ([1]; fenoprofen Ca salt 2.5 mg/kg days 0-15, p = 0.196): 34.9% | Percent Inhibition of Swelling, Uninjected Paw ([1]; fenoprofen Ca salt 2.5 mg/kg days 0-15, p = 0.645): 17.4% | Percent Inhibition of Swelling, Uninjected Paw ([1]; fenoprofen Ca salt 5 mg/kg days 10-15, p = 0.385): 27.2% | Percent Inhibition of Swelling, Injected Paw ([1]; fenoprofen Ca salt 5 mg/kg days 10-15, p = 0.58): 40.3% | inhibiting induced arthritis, drug alone [1]: neither drug alone is effective | death ([2]; Table 2 footnote, 2.5 mg/kg days 0-15, at day 16): one death

CC[C@]1(O)C[C@@H]2CN(CCc3c([nH]c4ccccc34)[C@@](C(=O)OC)(c3cc4c(cc3OC)N(C)[C@H]3[C@@](O)(C(=O)OC)[C@H](OC(C)=O)[C@]5(CC)C=CCN6CC[C@]43[C@@H]65)C2)C1 [Vinblastine sulfate]
Average Increase in Swelling, Injected Paw, Day 0-10 [1, 9]: 0.554 | Average Increase in Swelling, Injected Paw, Day 10-16 [1, 9]: 0.722 | Average Increase in Swelling, Uninjected Paw, Day 0-10 [1, 9]: 0.024 | Average Increase in Swelling, Uninjected Paw, Day 10-16 [1, 9]: 0.574 | Percent Inhibition Swelling, Injected Paw ([1]; Table 1 Section A, 3 mg/kg, given on 10th day, p = 0.097): 38.55% | Percent Inhibition Swelling, Uninjected Paw ([1]; Table 1 Section A, 3 mg/kg, given on 10th day, p = 0.987): 0% | Average Increase in Swelling, Injected Paw, Day 0-10 [1, 10]: 0.498 | Average Increase in Swelling, Injected Paw, Day 10-16 [1, 10]: 0.188 | Average Increase in Swelling, Uninjected Paw, Day 0-10 [1, 10]: 0.038 | Percent Inhibition Swelling, Injected Paw ([1]; Table 1 Section A, 6 mg/kg, given on 10th day, p = 0.001): 84.00% | Percent Inhibition Swelling, Uninjected Paw ([1]; Table 1 Section A, 6 mg/kg, given on 10th day, p = 0.077): 74.39% | Average Increase in Swelling, Injected Paw, Day 0-10 [1, 11]: 0.492 | Average Increase in Swelling, Uninjected Paw, Day 0-10 [1, 11]: 0.230 | Average Increase in Swelling, Injected Paw, Day 10-16 [1, 12]: -0.096 | Average Increase in Swelling, Uninjected Paw, Day 10-16 [1, 12]: -0.232 | Percent Inhibition Swelling, Injected Paw ([1]; Table 1 Section A, 9 mg/kg, given on 10th day, p = 0.000): 100.0% | Percent Inhibition Swelling, Uninjected Paw ([1]; Table 1 Section A, 9 mg/kg, given on 10th day, p = 0.004): 100.00% | Average Increase in Swelling, Injected Paw, Day 0-10 ([1]; Table 1 Section A, 12 mg/kg, given on 10th day): 0.698 | Average Increase in Swelling, Injected Paw, Day 10-16 [1, 13]: -0.108 | Average Increase in Swelling, Uninjected Paw, Day 0-10 [1, 13]: -0.102 | Average Increase in Swelling, Uninjected Paw, Day 10-16 [1, 13]: -0.048 | Percent Inhibition Swelling, Injected Paw ([1]; Table 1 Section A, 12 mg/kg, given on 10th day, p = 0.000): 100.00% | Percent Inhibition Swelling, Uninjected Paw ([1]; Table 1 Section A, 12 mg/kg, given on 10th day, p = 0.027): 100.00% | Average Increase in Swelling, Injected Paw, Day 0-10 [1, 14]: 0.498 | Average Increase in Swelling, Injected Paw, Day 10-16 [1, 14]: 0.188 | Average Increase in Swelling, Uninjected Paw, Day 0-10 [1, 14]: 0.030 | Percent Inhibition Swelling, Injected Paw ([1]; Table 1 Section B, vinblastine sulfate 6 mg/kg, 10th day, p = 0.001): 84.00% | Percent Inhibition Swelling, Uninjected Paw ([1]; Table 1 Section B, vinblastine sulfate 6 mg/kg, 10th day, p = 0.077): 74.39% | Percent Inhibition of Swelling, Injected Paw ([1]; vinblastine sulfate 3 mg/kg day 10, p = 0.724): 8.22% | Percent Inhibition of Swelling, Uninjected Paw ([1]; vinblastine sulfate 3 mg/kg day 10, p = 0.764): 12.0% | Inhibition of Swelling, Mean Difference, Injected Paw [1, 15]: 1.00 | Inhibition of Swelling, Mean Difference, Uninjected Paw [1, 15]: 0.41 | inhibiting induced arthritis, drug alone [1]: neither drug alone is effective | Wt. Loss, Day 0-16 [2, 16]: -22.3 grams | Wt. Loss, Day 10-16 [2, 16]: -22.6 grams | Wt. Loss, Day 10-17 ([2]; Table 3, vinblastine sulfate 3 mg/kg, day 10): 28.9 grams

CC[C@]1(O)C[C@H]2CN(CCc3c([nH]c4ccccc34)[C@@](C(=O)OC)(c3cc4c(cc3OC)N(C=O)[C@H]3[C@@](O)(C(=O)OC)[C@H](OC(C)=O)[C@]5(CC)C=CCN6CC[C@]43[C@@H]65)C2)C1 [vincristine]
inhibition of the arthritic response [3]: no inhibition of the arthritic response | depression of paw swelling [4]: significant depression of paw swelling | antiarthritic activity relative to VLB [5]: about 10 times more active

COc1ccc2c(c1)c(CC(=O)O)c(C)n2C(=O)c1ccc(Cl)cc1 [Indomethacin]
Inhibition of Swelling, Mean Difference, Injected Paw ([1]; indomethacin 0.25 mg/kg, p = 0.11): 0.59 | Inhibition of Swelling, Mean Difference, Uninjected Paw ([1]; indomethacin 0.25 mg/kg, p = 1): 0.56 | inhibiting induced arthritis, drug alone [1]: neither drug alone is effective

CC[C@]1(O)C[C@@H]2CN(CCc3c([nH]c4ccccc34)[C@@](C(=O)OC)(c3cc4c(cc3OC)N(C)[C@H]3[C@@](O)(C(=O)OC)[C@H](OC(C)=O)[C@]5(CC)C=CCN6CC[C@]43[C@@H]65)C2)C1 [Vinblastine]
activity in the adjuvant arthritis assay ([1]; summary statement): active in the adjuvant arthritis assay | effect on inflammation [6]: may have a suppressive effect | inflammatory response [7]: almost completely abolished | leukocyte depletion [7]: profound leukocyte depletion | significant phagocyte accumulation [7]: prevented | inhibition of the arthritic response [3]: no inhibition of the arthritic response | activity in twine granuloma assay (twine granuloma assay): active | depression of paw swelling [4]: significant depression of paw swelling
